Counter-ions that a name gives are not always drawn.
What was measured:
[1] = test system: HCT116; assay: AC50 cell viability (CellTiter-Glo); higher = less potent; conditions: 48 h
[2] = test system: HCT116; assay: efficacy (fitted maximal change in viability relative to DMSO control); higher = less cytotoxic (negative = loss of viability); conditions: 48 h
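Throughout, for AC50 cell viability (CellTiter-Glo): HCT116 colorectal carcinoma cells screened at five concentrations per compound, luminescent viability scaled between DMSO wells and empty wells on each plate, curves fitted per compound.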
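Throughout, for efficacy (fitted maximal change in viability relative to DMSO control): Luminescence-based viability readout, five doses per compound, normalized against on-plate DMSO and empty-well controls, followed by dose-response curve fitting for every drug.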

Row | SMILES | AC50 cell viability [1] [µM] | efficacy [2] [%]
1 | CCCCNc1ncc2c(-c3ccc(CN4CCN(C)CC4)cc3)cn(C3CCC(O)CC3)c2n1 (configuration not stated) [UNC-2025] | 1.66 | -74.3
2 | CC(C)Nc1cc(-c2c[nH]c(C(=O)N[C@H](CO)c3cccc(Cl)c3)c2)c(Cl)cn1 [Ulixertinib] | 1.86 | -114
3 | CC(C)OC1=C(F)C=C(C=C1)C2=N[N]([C@@H](C)C/3=C(C4=CC(=CC=C4)F)/C(=O)C5=CC(=CC=C5O3)F)C6=C2C(=NC=N6)N [Umbralisib] | 14.8 | -35.3
4 | CC[C@]1(O)C[C@H]2CN(CCC3=C([NH]C4=C3C=CC=C4)[C@@](C2)(C(=O)OC)C5=C(OC)C=C6N(C)[C@H]7[C@](O)([C@H](OC(C)=O)[C@]8(CC)\C=C/CN9CC[C@]7([C@H]89)C6=C5)C(=O)OC)C1 [VINBLASTINE SULFATE] | 0.372 | -53.2
5 | C/C(=N\Nc1nnc2c(n1)[nH]c1c(C)cccc12)c1ccccn1 [VLX-600] | 0.742 | -87.1
6 | C=CC(=O)N1CC/C(=C\c2ccc(F)c([N+](=O)[O-])c2)C(=O)/C(=C/c2ccc(F)c([N+](=O)[O-])c2)C1 [VLX-1570] | 0.295 | -81.4
7 | CC(C)(O)CNc1ncc(-c2ccnc(Nc3ccncc3)n2)c(CC2CC2)n1 [VPS34 Inhibitor 1 (Compound 19, PIK-III analogue)] | 13.2 | -109
8 | CCCCC(=O)OCC(=O)[C@]1(O)Cc2c(O)c3c(c(O)c2[C@@H](O[C@H]2C[C@H](NC(=O)C(F)(F)F)[C@H](O)[C@H](C)O2)C1)C(=O)c1c(OC)cccc1C3=O [Valrubicin] | 1.86 | -88.9
9 | C/C=C/C[C@@H](C)C(=O)[C@H]1C(=O)N[C@@H](C(C)C)C(=O)N(C)CC(=O)N(C)[C@@H](CC(C)C)C(=O)N[C@@H](C(C)C)C(=O)N(C)[C@@H](CC(C)C)C(=O)N[C@@H](C)C(=O)N[C@H](C)C(=O)N(C)[C@@H](CC(C)C)C(=O)N(C)[C@@H](CC(C)C)C(=O)N(C)[C@@H](C(C)C)C(=O)N1C [Valspodar] | 8.11 | -53.6
10 | COc1cc2c(Nc3ccc(Br)cc3F)ncnc2cc1OCC1CCN(C)CC1 [Vandetanib] | 14.8 | -108
11 | Fc1ccc(C(OCCN2CCN(CCCc3ccccc3)CC2)c2ccc(F)cc2)cc1 [Vanoxeamine] | 11.8 | -96.8
12 | C[C@@H]\1COC(=N1)\NC2=CC3=C(C=C2)N=CN=C3NC4=CC(=C(OCC5=NC=CS5)C=C4)Cl [Varlitinib tosylate] | 16.6 | -87.5
13 | O=C(/C=C\n1cnc(-c2cc(C(F)(F)F)cc(C(F)(F)F)c2)n1)NNc1ccccn1 [Verdinexor] | 0.59 | -83.9
14 | COC1=CC(=CC=C1)C2=CC=C(NC(=O)/C3=C(/CCC3)C(O)=O)C(=C2)F [Vidofludimus] | 5.25 | -50.2
15 | CC[C@]1(O)C[C@H]2CN(CCC3=C([NH]C4=C3C=CC=C4)[C@@](C2)(C(=O)OC)C5=CC6=C(C=C5OC)N(C=O)[C@H]7[C@](O)([C@H](OC(C)=O)[C@]8(CC)\C=C/CN9CC[C@]67[C@H]89)C(=O)OC)C1 [Vincristine sulfate] | 0.372 | -60.7
16 | CC[C@]12\C=C/CN3CC[C@]4([C@@H](N(C)C5=C4C=C(C(=C5)OC)[C@]6(CC7C[C@H](CN(C7)CC8=C6[NH]C9=C8C=CC=C9)C(C)(F)F)C(=O)OC)[C@](O)([C@@H]1OC(C)=O)C(=O)OC)[C@H]23 (some centres not stated) [Vinflunine (Tartrate)] | 0.209 | -67.8
17 | CC[C@]12\C=C/CN3CC[C@]4([C@@H](N(C)C5=CC(=C(C=C45)[C@]6(C[C@H]7C[C@H](CN(C7)CC8=C6[NH]C9=C8C=CC=C9)C(C)(F)F)C(=O)OC)OC)[C@](O)([C@@H]1OC(C)=O)C(=O)OC)[C@H]23 [Vinflunine] | 0.0986 | -64.1
18 | CCC1=C[C@@H]2CN(C1)Cc1c([nH]c3ccccc13)[C@@](C(=O)OC)(c1cc3c(cc1OC)N(C)[C@H]1[C@@](O)(C(=O)OC)[C@H](OC(C)=O)[C@]4(CC)C=CCN5CC[C@]31[C@@H]54)C2 [Vinorelbine (ditartrate)] | 0.129 | -60.3
19 | CNC(=O)c1cccc(-c2ccc3c(N4CCOC[C@@H]4C)nc(N4CCOC[C@@H]4C)nc3n2)c1 [Vistusertib] | 0.417 | -31.3
20 | CC[C@@H]1C(=O)N(C)c2cnc(Nc3ccc(C(=O)NC4CCC(N5CCN(CC6CC6)CC5)CC4)cc3OC)nc2N1C(C)C (some centres not stated) [Volasertib] | 0.0661 | -89.8
21 | CN1CC[C@H]([C@@H]1CO)C2=C3OC(=C/C(=O)C3=C(O)C=C2O)\C4=C(Cl)C=C(C=C4)C(F)(F)F [Voruciclib] | 7.42 | -83.8
22 | CN[C@H]1CN(C[C@@H]1OC)C2=NC3=C(C=C2)C(=O)C(=C\N3C4=NC=CS4)/C(O)=O [Vosaroxin] | 1.91 | -59.8
23 | CCN1C(=O)\C(=C/C2=C(C)N=C(N)N=C12)C3=CC=N[NH]3 [Voxtalisib] | 5.25 | -60.4
24 | c1cncc(CN2CCC(n3ncc4c(N5CCOCC5)nc(-c5ccc6[nH]ccc6c5)nc43)CC2)c1 [WAY-600] | 5.9 | -78.7
25 | Cc1ccc(-c2nn(C(C)(C)CNC(=O)c3ccncc3)c3ncnc(N)c23)cc1 [WEHI-345] | 6.61 | -53
26 | COc1cc2ncnc(Nc3ccc(O)c(Br)c3)c2cc1OC [WHI-P154] | 14.8 | -72.5

Row | SMILES | AC50 cell viability [1] [µM] | efficacy [2] [%]
27 | CC(C)(C)NC(=O)c1cncn1C1CCN(c2ccc(-c3nnc(C(F)(F)F)o3)cn2)CC1 [WNK-463] | 3.72 | -49.1
28 | CN1CCN(Cc2ccc(NC(=O)Nc3ccc(Oc4cc(NC(=O)C5CC5)ncn4)cc3)cc2C(F)(F)F)CC1 [WS-3] | 0.0934 | -73.9
29 | O=C(CCCCCCC(=O)N/N=C/c1ccc(N(c2ccccc2)c2ccccc2)cc1)NO [WT-161] | 2.09 | -86.8
30 | COC(=O)Nc1ccc(-c2nc(N3CCOCC3)c3cnn(C4CCN(C(=O)OC)CC4)c3n2)cc1 [WYE-354] | 1.32 | -56.3
31 | COC(=O)Nc1ccc(-c2nc(N3CCOCC3)c3cnn(C4CCN(Cc5cccnc5)CC4)c3n2)cc1 [WYE-687] | 13.2 | -135
32 | C=CC(=O)Nc1cccc(Oc2nc(Nc3ccc(N4CCN(C)CC4)cc3)ncc2Cl)c1 [WZ-3146] | 4.17 | -101
33 | C=CC(=O)Nc1cccc(Oc2nc(Nc3ccc(N4CCN(C)CC4)cc3OC)ncc2Cl)c1 [WZ-4002] | 11.8 | -96.5
34 | CCC(=O)Nc1cccc(Oc2nc(Nc3ccc(N4CCN(C)CC4)cc3OC)ncc2Cl)c1 [WZ-4003] | 6.61 | -65.7
35 | C=CC(=O)Nc1cccc(Sc2nc(Nc3ccc(N4CCN(C)CC4)cc3)ncc2Cl)c1 [WZ-8040] | 7.42 | -108
36 | C[C@H]([C@H]1C\C(=C(CO)/C(=O)O1)C)[C@H]2CC[C@H]3[C@@H]4C[C@H]5O[C@]56[C@@H](O)\C=C/C(=O)[C@]6(C)[C@H]4CC[C@]23C [Withaferin A] | 1.66 | -102
37 | CCN1CCC(n2cc(CNc3cc(Cl)c4ncc(C#N)c(Nc5ccc(F)c(Cl)c5)c4c3)nn2)CC1 [Wyeth Cot Inhibitor 2] | 20.9 | -98.5
38 | COc1cc2c(Nc3ccc(Cl)c(Cl)c3F)ncnc2cc1OC[C@@H]1C[C@@H]2CN(C)C[C@@H]2C1 [XL647] | 11.8 | -113
39 | ClC1=CC=C2OC3=C(\N=C(NC3=O)\[C@@H]4CCCN4)C2=C1 [XL 413 hydrochloride] | 14.8 | -47.6
40 | CC(C)c1cc(CNc2nc(Nc3cc(C4CC4)[nH]n3)cc(N3CCN(C)CC3)n2)on1 [XL-228] | 0.295 | -64
41 | Cc1c(C(=O)N2CCOc3ccc(-c4ccc(N)nc4)cc3C2)ccc([S+](C)(=O)[O-])c1F [XL-388] | 10.5 | -65.5
42 | COCCOC(=O)N1CCN([S+](=O)([O-])c2cc(F)c(Oc3ccc(Cl)cc3)c(F)c2)C(C(=O)NO)C1 (configuration not stated) [XL-784] | 10.5 | -92.6
43 | CC[C@@H](C)Nc1cc(C(=O)NC2CC3CCC(C2)N3c2ccc(C(=O)C3CC3)cn2)c(C)cc1C(N)=O (some centres not stated) [XL-888] | 0.118 | -56.5
44 | CC[C@@H](C)Nc1cc(C(=O)NC2CC3CC[C@@H](C2)N3c2ccc(C(=O)C3CC3)cn2)c(C)cc1C(N)=O (some centres not stated) [XL-888] | 0.0833 | -59.7
45 | COc1cc(N2CCN(C)CC2)ccc1Nc1ncc2c(n1)N(C)c1ccccc1C(=O)N2 [XMD8-87] | 18.6 | -92.7
46 | CCOc1cc(N2CCC(O)CC2)ccc1Nc1ncc2c(n1)N(C)c1ccccc1C(=O)N2C [XMD8-92] | 8.33 | -80.7
47 | COc1cc(N2CCN(C)CC2)ccc1Nc1ncc2c(n1)N(C)c1ccccc1C(=O)N2C [XMD17-109 (ERK5-IN-1)] | 9.34 | -89.1
48 | CCOc1cc(C(=O)N2CCC(N3CCN(C)CC3)CC2)ccc1Nc1ncc2c(n1)N(C1CCCC1)c1ccccc1C(=O)N2C [XMD17-109] | 7.42 | -104
49 | CN1C(=O)c2sccc2N(C)c2nc(Nc3ccc([S+](N)(=O)[O-])cc3)ncc21 [XMU-MP-1] | 3.32 | -99.2
50 | Cc1cc(C(=O)N2CCN(c3cccc(Cl)c3)CC2)n(-c2ccccc2)n1 [XRP-44X] | 2.95 | -62.8
51 | C=C1C(=O)O[C@H]2C[C@H](C)C(/C=C/C(C)=O)=CC[C@H]12 [Xanthatin] | 2.63 | -76
